# Test results: patent US20240018125A1, “CYCLIC ISOTHIOUREA DERIVATIVES AS CXCR4 MODULATORS” (ERMIUM THERAPEUTICS, priority 2020, published 2024)
# Where a name gives a salt, the structure may show the parent alone.
# Experiments:
# [1] = tested on: peripheral blood mononuclear cells (PBMCs) from healthy donors; assay: IFN production by R848-activated PBMCs, quantified with twINNE luciferase reporter cell line; type: cell-based, human; conditions: Homo sapiens, PBMC; read-out: IC50 of anti-inflammatory activity (IFN production by activated PBMCs)
# In short: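 Functional IFN was quantified by luciferase output from the twINNE ISRE-reporter line after 24 h on conditioned supernatants. Those supernatants came from human PBMCs (4.10^6/mL) pre-treated with compound and then stimulated for 24 h with 5 μg/mL resiquimod. IC50s were fitted by nonlinear variable-slope regression.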
# [2] = target: T1, human CXCR4 (hCXCR4) receptor (Homo sapiens, UniProt P61073); assay: BRET assay of antagonist activity on the CXCR4-CXCL12 signaling pathway (Gαi2 recruitment) in HEK-293 T cells; type: cell-based; conditions: HEK-293 T cells with hCXCR4, Gαi2 and BRET biosensors; 10 min with compound, then EC80 CXCL12
# T1 construct: expressed in transfected cells; host or cells: HEK-293 T cells, transient co-transfection with polyethylenimine
# Protocol: Examples of the present invention were tested for their antagonist activity on human CXCR4 (hCXCR4) receptor transiently over-expressed in HEK-293 T cells. Compounds exert antagonist activity if they decrease the action of CXCL12 on the receptor.
# The specific effector (luciferase tagged: BRET donor) recruited at the membrane will be in close proximity to a plasma membrane anchor (GFP tagged: BRET acceptor) to induce a BRET signal (Hamdan et a1, 2006, Chapter 5, Current Protocols in Neuroscience).
# HEK-293 T cells are maintained in Dulbecco's Modified Eagle's Medium supplemented with 10% Foetal Calf Serum, 1% Penicillin/Streptomycin at 37° C./5% CO2. Cells are co-transfected using polyethylenimine (25 kDa linear) with several DNA plasmids encoding: hCXCR4; Gai2; an intracellular effector fused to luciferase (BRET donor); a plasma membrane effector fused to GFP (BRET acceptor). After transfection, cells are cultured for 48 h at 37° C./5% CO2. On the day of the assay, cells are detached using trypsin 0.05%, resuspended in assay buffer (1.8 mM CaCl2, 1 mM MgCl2, 2.7 mM KCl, 137 mM NaCl, 0.4 mM NaH2PO4, 5.5 mM D-Glucose, 11.9 mM NaHCO3, 25 mM Hepes) and seeded in 384 well plate at a density of 20,000 cells per well. Then, plates are equilibrated 3.5 h at 37° C. before adding compounds. Compounds and luciferase substrate are added to the cells using an automated device (Freedom Evo®, Tecan) and BRET readings are collected on EnVision (PerkinElmer) with specific filters (410 nm BW 80 nm, 515 nm BW 30 nm).
# Cells are first incubated for 10 minutes with the compound alone. Then, cells are stimulated by an EC80 CXCL12 concentration for additional 10 minutes and luminescence is recorded. EC80 CXCL12 concentration is the concentration giving 80% of the maximal CXCL12 response. Antagonist activity is evaluated in comparison to basal signals evoked by EC80 CXCL12 alone.
# For IC50 determination, a dose-response test is performed using 20 concentrations (ranging over 6 logs) of each compound. Dose-response curves are fitted using the sigmoidal dose-response (variable slope) analysis in GraphPad Prism software (GraphPad Software) and IC50 of antagonist activity is calculated. Dose-response experiments are performed in duplicate, in two independent experiments.
# HEK-293 T cells were transfected to allow measuring the recruitment of Gai2 proteins involved in intracellular signaling by human CXCR4 receptor (hCXCR4) via the BRET technology. Cells were then incubated with various concentrations of examples of the invention before stimulation with an EC80 concentration of CXCL12.
# [3] = tested on: Female Balb/c mice, pristane-induced lupus; assay: In vivo pristane-induced lupus mouse model, anti-dsDNA antibody titers in serum by ELISA; conditions: 15 mg/kg p.o. once daily, as of week 4
# Protocol: Female Balb/c mice (6 to 8 weeks, ENVIGO, Indianapolis, USA) received a single i.p. injection with 0.5 mL of pristane (Sigma-Aldrich, St Louis, USA) to induce a lupus-like disease. That same day, once daily treatment was started (10 mL/kg), either with vehicle control (PBS) i.p., with prednisolone (Sigma-Aldrich, St Louis, USA) in PBS p.o. at a dose of 15 mg/kg (positive control), or with an exemplary compound of formula (I), i.e. Example 60, at a dose of either 3 mg/kg, 10 mg/kg or 30 mg/kg in PBS i.p. After 4, 6 and 8 weeks of dosing, sample bleeds for each mouse were collected via the orbital sinus, and immediately cold processed to sera and stored (50 μl) at −80° C. until analysis. In serum, anti-dsDNA antibody titers are determined using ELISA. Optical density was measured at 450 nm (OD450) using a microplate reader. Data are reported as anti-dsDNA Ab titers (OD), mean±S.E.M. as well as the statistical significance versus pristane-induced vehicle treated group using t-tests.
# [4] = tested on: monocytes from healthy donors; assay: Intracellular TNFα, IL-6 and IL-1β production by R848-activated monocytes after CXCR4 siRNA knockdown or AMD3100 block (flow cytometry); type: cell-based, human
# From the text: The blood from healthy donors was obtained from “Etablissement Français du Sang” (convention #19/EFS/029), Paris, France.
# Peripheral blood mononuclear cells (PBMCs) were isolated by density centrifugation from peripheral blood leukocyte separation medium, lymphoprep (Stemcell Technologies, Vancouver, Canada).
# Monocytes used for in vitro experiments as described in part C/D were purified by positive selection with human CD14 microbeads (Miltenyi Biotec, Bergisch Gladbach, Germany) from PBMCs.
# Monocytes were cultured in RPMI 1640 (Sigma-Aldrich, St Louis, USA) containing 10% heat-inactivated Fetal Bovine Serum (FBS, Sigma-Aldrich, St Louis, USA) at 37° C./5% CO2.
# PBMCs and monocytes used herein were prepared as described in part A ‘Immune cells preparation’, above. Monocytes as prepared in part C ‘In vitro knockdown using siRNA or CXCR4 antagonist treatment’ and D ‘Quantification of TNFα, IL-6 and IL1β productions’ were incubated with one exemplary compound of formula (I), i.e. […] Monocytes were analysed by flow cytometry. For intracellular TNFα, IL-6 and IL-1p labelling as described in Part D ‘Quantification of TNFα, IL-6 and IL-1β productions’, Brefeldin A (BFA) was added to the cells 30 minutes after R848 stimulation.
# Isolated monocytes were seeded at 10^5 cells/100 μL in 96-well plates and incubated at 37° C.
# Monocytes were then treated with small interfering RNA (siRNA) which target the chemokine receptor CXCR4 mRNA (siCXCR4) (Smart Pool, Dharmacon, Lafayette, USA), or with control siRNAs (siCTL) and coupled to a transfection agent DOTAP (Roche Applied Science, Penzberg, Germany). The mix was gently mixed and incubated at room temperature for 15 minutes. After incubation, the mix was added to cells in culture at a final concentration of 160 nM. Finally, cells were incubated at 37° C. for 24 hours.
# Alternatively, monocytes were treated after seeding with the CXCR4 antagonist AMD3100 (Sigma-Aldrich, USA) at 20 μM for 1 hour.
# Monocytes as treated in part C, were washed in phosphate-buffered saline (PBS) and incubated with a viability marker (Zombie Aqua, Biolegend, San Diego, USA) for 30 minutes at room temperature. After washing, cells were resuspended in PBS containing 2% FBS and 2 mM ethylenediaminetetraacetic acid (EDTA) and labelled with anti-CD14 antibody (clone REA599, Miltenyi Biotech, Bergisch Gladbach, Germany), used at 1:100. For intracellular labelling of TNFα, IL-6 and IL-1β, the “Inside Stain” kit (Miltenyi Biotec, Bergisch Gladbach, Germany) was used according to the manufacturer's protocol. Cells were fixed for 20 minutes at room temperature with 250 μL of Inside Fix solution and then labelled in 100 μL of Inside Perm solution containing anti-TNFα antibody (clone cA2), anti-IL-6 antibody (clone REA1037) or anti-IL-1p antibody (clone REA1172) at 1/500 for 30 minutes at room temperature (all from Miltenyi Biotec, Bergisch Gladbach, Germany). Data acquisition was performed on the Canto II flow cytometer using Diva software (BD Biosciences, San Jose, USA). FlowJo software was used to analyse the data.
# [5] = target: T2, Recombinant CXCR4 receptor (Homo sapiens, UniProt P61073); assay: G.Validation fluorescence assay of CXCR4 receptor conformational changes in lipidic micelles SB2L4 and SB3L1; type: biochemical; conditions: ligand 150 μM over basal state, 5 μM labelled CXCR4, 40 min
# T2 construct: host or cells: HEK-293 T cells
# From the text: G.Validation® assay is […] biotech proprietary fluorescence based assay that assesses conformational changes of a receptor upon activation/inactivation. Recombinant CXCR4 receptor is produced and purified from HEK-293 T cells using […] proprietary mixes. Receptor is then reconstituted in detergent buffers containing lipids mimicking the lipidic composition of dendritic cells (DC) and macrophages (SB2L4 and SB3L1). Thereafter, the receptor is labelled with a non-modifying probe allowing the detection of the activation state and conformational change of the receptor upon addition of a ligand. Indeed, the probe emission spectra maximum wavelength (Amax) shifts according to activation/inactivation of the receptor. Thus, kinetic of activation/inactivation of the receptor can be followed by monitoring Amax shift after addition of a ligand over time. Emission spectra were registered for 40 minutes after addition of each ligand. […] Activation/inactivation kinetics were also followed using an exemplary compound of formula (I), i.e.
# [6] = tested on: 129S8 mice infected with influenza A virus H3 N2 (X31); assay: In vivo immunomodulating effect (type 1 IFNs in BALF) in acute influenza inflammation model; set-up: species or system mouse; conditions: mouse, in vivo
# [7] = AMD3100 20 μM, Example 77 10, 50 and 500 nM, R848
# T1 sequence (P61073 whole entry): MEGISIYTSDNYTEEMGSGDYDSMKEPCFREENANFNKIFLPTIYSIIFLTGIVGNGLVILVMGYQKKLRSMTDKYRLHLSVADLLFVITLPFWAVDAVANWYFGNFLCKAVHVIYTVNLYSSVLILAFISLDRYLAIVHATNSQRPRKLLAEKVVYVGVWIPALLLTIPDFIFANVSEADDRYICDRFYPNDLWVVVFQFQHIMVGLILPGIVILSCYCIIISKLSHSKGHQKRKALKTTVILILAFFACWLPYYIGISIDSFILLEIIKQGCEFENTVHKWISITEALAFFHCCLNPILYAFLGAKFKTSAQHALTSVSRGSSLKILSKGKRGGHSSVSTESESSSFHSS
# T2 sequence (P61073 whole entry): as above
smiles,measurement,setting,value
"c1ccc(CC2CN=C(SCCCc3ccncc3)N2)cc1 (stereo not shown) [Example 55, 4-(3-((5-benzyl-4,5-dihydro-1H-imidazol-2-yl)thio)propyl)pyridine dihydrochloride]",IC50,[1],10 to 32 µM
same,IC50,[2],≥ 15 µM
"Clc1ccc2c(c1)CN1C(CSC3=NCc4ccccc4N3)=CSC1=N2 [Example 19, 7-chloro-3-(((1,4-dihydroquinazolin-2-yl)thio)methyl)-5H-thiazolo[2,3-b]quinazoline dihydrochloride]",IC50,[1],≤ 10 µM
same,IC50,[2],≥ 15 µM
"C[C@]12C=CC(=O)C=C1CC[C@@H]1[C@@H]2[C@@H](O)C[C@@]2(C)[C@H]1CC[C@]2(O)C(=O)CO [prednisolone, reference compound]",anti-dsDNA Ab titers in serum vs vehicle-treated pristane-induced mice,[3],significantly reduced
"c1ccc2c(c1)CN=C(SCCN1CCCC1)N2 [Example 77, 2-((2-(pyrrolidin-1-yl)ethyl)thio)-1,4-dihydroquinazoline dihydrochloride]",IC50,[1],≤ 10 µM
same,IL-1β production by activated monocytes in the presence of Example 77 with CXCR4 blocked by AMD3100,[4]; [7],restored
same,TNFα production by activated monocytes in the presence of Example 77 with CXCR4 blocked by AMD3100,[4]; [7],restored
same,IL-1β production by activated monocytes in the presence of Example 77 after CXCR4 siRNA,"[4]; siCXCR4 vs siCTL, Example 77 50 nM, R848 1 μg/mL, % IL-1β positive cells",restored
same,IL-6 production by activated monocytes in the presence of Example 77 after CXCR4 siRNA,"[4]; siCXCR4 vs siCTL, Example 77 50 nM, R848 1 μg/mL, % IL-6 positive cells",restored
same,TNFα production by activated monocytes in the presence of Example 77 after CXCR4 siRNA,"[4]; siCXCR4 vs siCTL, Example 77 50 nM, R848 1 μg/mL, % TNFα positive cells",restored
same,IC50,[2],≥ 15 µM
NC[C@H](O)c1ccc(O)c(O)c1 [Norepinephrine],"CXCR4 structural activation/inactivation, Amax shift in fluorescence",[5],did not show any significant effect
Cc1ccc(OCC(O)C(C)NC(C)C)c2c1CCC2 (stereo not shown) [ICI 118 551],"CXCR4 structural activation/inactivation, Amax shift in fluorescence",[5],did not show any significant effect
"CC(C)Cc1ccc(C(C)C(=O)O)cc1 (stereo not shown) [ibuprofen, reference compound]",concentration of IFNα in BALF vs vehicle-treated infected mice,[6],significantly lower
same,concentration of IFNβ in BALF vs vehicle-treated infected mice,[6],significantly lower
same,concentration of IFNλ2/3 in BALF vs vehicle-treated infected mice,[6],significantly lower
"C1=C(CSC2=NCc3ccccc3N2)N2CC(Cc3ccccc3)N=C2S1 (stereo not shown) [Example 65, 6-benzyl-3-(((3,4-dihydroquinazolin-2-yl)thio)methyl)-5,6-dihydroimidazo[2,1-b]thiazole dihydrochloride]",IC50,[1],≤ 10 µM
same,IC50,[2],≥ 15 µM
